{
  "source": "paper PMC3519477",
  "about": "“Structures of the Human Poly (ADP-Ribose) Glycohydrolase Catalytic Domain Confirm Catalytic Mechanism and Explain Inhibition by ADP-HPD Derivatives” (PLoS ONE, 2012)",
  "key": {"[1]": {"target": "T1, hPARG4 (Homo sapiens, UniProt Q86W56)", "T1 construct": "a codon optimized gene encoding human PARG(448–976) was synthesized by GeneArt; 6His (TEV-cleavable) (N, cleaved yes); made in house; host or cells: E. coli BL21 (DE3) GOLD", "T1 sequence (Q86W56 448-976)": "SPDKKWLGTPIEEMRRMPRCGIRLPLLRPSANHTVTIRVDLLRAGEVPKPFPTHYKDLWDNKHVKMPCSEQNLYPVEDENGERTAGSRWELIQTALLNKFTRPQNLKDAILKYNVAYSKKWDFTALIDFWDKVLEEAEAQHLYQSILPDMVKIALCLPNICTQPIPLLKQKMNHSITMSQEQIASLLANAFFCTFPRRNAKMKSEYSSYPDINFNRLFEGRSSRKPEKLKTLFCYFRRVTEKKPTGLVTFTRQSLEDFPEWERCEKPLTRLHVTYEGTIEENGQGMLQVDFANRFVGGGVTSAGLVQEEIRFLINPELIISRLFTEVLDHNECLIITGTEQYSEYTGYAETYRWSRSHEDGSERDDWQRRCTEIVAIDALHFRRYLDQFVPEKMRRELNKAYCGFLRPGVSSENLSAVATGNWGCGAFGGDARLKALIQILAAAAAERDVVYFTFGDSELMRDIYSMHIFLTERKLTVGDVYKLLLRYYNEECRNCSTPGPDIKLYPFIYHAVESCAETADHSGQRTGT", "assay": "SPR competition experiments against saturating ADP-HPD", "format": "binding", "excerpt": "The ADPR and ADP-HPD complex structures superpose almost exactly (r.m.s. deviation 0.14 Å over all Cα; 0.47 Å over all atoms within the binding pocket (MOE, Chemical Computing Group)). ADPR and ADP-HPD engage in equivalent interactions, with the exception of loss of an H-bond between the 1″-OH and Glu756 as this OH is not present in ADP-HPD. […] We speculate that the bound conformation of ADP-HPD is stabilised relative to ADPR by dipole-dipole interactions between the HPD NH2 ^+ and a negatively charged α-phosphate oxygen and/or the oxygen linking the β-phosphate to ribose” (4.1 Å and 2.9 Å separation respectively, Figure 4b). In addition, the α-phosphate oxygen H-bonding network may be strengthened in the ADP-HPD complex by the charged interaction with the pyrrolidine NH2 ^+. This oxygen accepts H-bonds from the backbone NH of Gln754 and a conserved water molecule, and is shielded from solvent by Val753. Binding of ADP-HPD is primarily enthalpy driven (Table 1).\nStudies of PARG inhibitor binding were conducted at 25°C. Samples were prepared as 5 fold dilutions in the experimental running buffer (20 mM HEPES pH 7, 150 mM NaCl, 2 mM DTT, 0.005% P20, 0.02% NaN3 with 5% DMSO). Surface regeneration was achieved using dissociation for a time period allowing the response to return to baseline. Control injections of a fixed, saturating ADP-HPD concentration of 20 µM were interspersed with injections of compound to allow monitoring of the functionality of the protein surface. To calculate affinities, SPR equilibrium binding data, consisting of Req values from 8–10 point concentration series, were analyzed by fitting a simple 1∶1 binding model to yield Rmax and Kd values using non-linear regression analysis in Grafit 6 (Erithacus Software)."}, "[2]": {"target": "bPARG", "design": "method as in PMID 7830282", "details": "read-out: KD, reported value for bPARG; cited from earlier work"}, "[3]": {"tested_on": "TcPARG Glu114Ala mutant", "design": "method as in supplemental 4 (Slade et al., 2011)", "details": "ref supplemental 4 (Slade et al., 2011); cited from earlier work"}, "[4]": {"tested_on": "TcPARG Glu115Ala mutant", "design": "method as in supplemental 4 (Slade et al., 2011)", "details": "ref supplemental 4 (Slade et al., 2011); cited from earlier work"}, "[5]": {"target": "T2, hPARG (full-length recombinant hPARG(1–976)-6His) (Homo sapiens, UniProt Q86W56)", "T2 construct": "direct expression of hPARG(1–976) with a C-terminal hexahistidine tag; made in house; host or cells: E. coli BL21 (DE3) GOLD", "T2 sequence (Q86W56 whole entry)": "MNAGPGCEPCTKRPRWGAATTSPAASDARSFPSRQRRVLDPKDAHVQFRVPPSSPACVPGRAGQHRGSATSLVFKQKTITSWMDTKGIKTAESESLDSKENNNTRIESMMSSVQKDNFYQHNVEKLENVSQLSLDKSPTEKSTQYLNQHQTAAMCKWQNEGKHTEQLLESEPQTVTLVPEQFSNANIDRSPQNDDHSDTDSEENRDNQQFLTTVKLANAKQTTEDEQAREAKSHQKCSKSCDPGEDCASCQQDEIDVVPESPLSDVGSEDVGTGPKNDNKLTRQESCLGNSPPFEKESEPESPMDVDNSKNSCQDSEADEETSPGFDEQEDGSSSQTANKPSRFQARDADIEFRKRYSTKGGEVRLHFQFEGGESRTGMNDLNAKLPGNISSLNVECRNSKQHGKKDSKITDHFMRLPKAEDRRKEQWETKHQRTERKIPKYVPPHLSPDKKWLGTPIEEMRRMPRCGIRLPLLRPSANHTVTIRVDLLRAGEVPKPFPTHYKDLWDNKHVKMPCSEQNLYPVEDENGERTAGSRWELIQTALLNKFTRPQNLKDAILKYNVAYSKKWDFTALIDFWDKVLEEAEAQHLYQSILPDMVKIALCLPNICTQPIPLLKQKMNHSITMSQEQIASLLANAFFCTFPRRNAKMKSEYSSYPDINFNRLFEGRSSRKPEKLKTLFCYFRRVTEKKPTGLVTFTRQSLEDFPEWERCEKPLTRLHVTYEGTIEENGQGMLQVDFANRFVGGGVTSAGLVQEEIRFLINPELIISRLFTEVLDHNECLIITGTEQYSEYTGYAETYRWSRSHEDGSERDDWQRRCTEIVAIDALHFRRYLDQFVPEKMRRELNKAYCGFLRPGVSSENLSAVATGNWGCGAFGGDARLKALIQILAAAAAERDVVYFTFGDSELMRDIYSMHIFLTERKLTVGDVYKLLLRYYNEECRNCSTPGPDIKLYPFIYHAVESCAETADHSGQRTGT", "assay": "PARG activity HTRF assay (PAR-PARP1 hydrolysis)", "format": "biochemical", "description": "PARG activity was assessed using an HTRF assay which will be described in detail elsewhere (Bennett et al, manuscript in preparation). […] Following this incubation, biotinylated NAD^+ at a molar ratio to PARylated PARP1 of 0.7∶1 was added and incubation continued for 5 minutes. The reaction was terminated by addition of a PARP1-specific inhibitor to a final concentration of 4.7 µM. The solution was dialysed overnight to remove excess biotinylated NAD^+ and compound, and stored at −80°C. PARG activity was measured in a 384-well format HTRF assay using the biotin-labelled PARylated PARP1 as a substrate. Residual biotinylated PARylated PARP1 was detected by addition of a detection mix containing anti-6His–XL antibody (Cisbio) and streptavidin europium cryptate (Cisbio), and then monitoring the ratio of emission at 665 nm to 612 nm upon excitation at 340 nm.\nInhibition by ADP-HPD was measured using serial dilutions over the range 100 µM to 100 pM compound from a 1 mM stock in water. Assays contained 30 pM purified recombinant PARG and 9.67 nM PAR-PARP1 in a final volume of 9 µL assay buffer (50 mM MOPS pH 7.4, 0.1 mg/mL BSA, 3 mM EDTA, 0.4 mM EGTA, 1 mM DTT, 0.01% v/v Tween20, 50 mM KCl). Reactions were allowed to proceed for 8 minutes prior to the addition of 3 µL detection reagents (50 mM MOPS pH 7.4, 0.1 mg/mL BSA, 0.1 M Potassium Fluoride, 14 nM anti-6HIS-XL antibody, 0.75 nM Streptavidin Europium Cryptate). IC50s were calculated using a time-point of 1.5 hours from the addition of detection reagents.\nHere, 17.5 nL of ADP-HPD ([…]) or OA-ADP-HPD (21.43 mM in DMSO) were dispensed by an ECHO555 (Labcyte Inc.) into Greiner white 1536-well plates over the specified range: ADP-HPD (100 µM to 100 pM) and OA-ADP-HPD (500 µM to 30 nM).\nADP-HPD and OA-ADP-HPD inhibition data were visualised in Prism (GraphPad), and IC50s derived from a non-linear regression analysis of the values from three separate experiments (run in triplicate) fit to a sigmoidal dose-response curve."}, "[6]": {"target": "T3, hPARG4 (hPARG(448–976)) (Homo sapiens, UniProt Q86W56)", "T3 construct": "a codon optimized gene encoding human PARG(448–976) was synthesized by GeneArt; 6His (TEV-cleavable) (N, cleaved yes); made in house; host or cells: E. coli BL21 (DE3) GOLD", "T3 sequence (Q86W56 448-976)": "as the sequence (Q86W56 448-976) above", "assay": "Isothermal titration calorimetry", "format": "binding", "details": "25°C", "description": "This was carried out using an iTC200 instrument (Microcal, GE Healthcare, Northampton, MA) at 25°C in the following buffer: 20 mM HEPES pH 7, 150 mM NaCl, 2 mM DTT, 0.02% NaN3. Protein concentrations were typically 30 µM in the cell with ligand concentrations of at least 10 fold this concentration in the syringe. Typical injection protocols of 19×2 µL injections, spaced at 2 or 3 minute intervals were used. Curves were fitted by non-linear regression analysis using a one-site binding model provided by MicroCal Origin software (version 7)."}, "[7]": {"assay": "Cell activity of PARG inhibitor (data not shown)", "format": "cell-based"}},
  "note": "Read-outs that look alike come from different tables or passages of the source.",
  "data": [
    {"smiles": "Nc1ncnc2c1ncn2C1OC(COP(=O)(O)OP(=O)(O)OCC2OC(O)C(O)C2O)C(O)C1O", "note": "(centres unmarked) [ADPR, ADP-ribose]", "values": [
      {"measurement": "weaker affinity relative to ADP-HPD", "setting": "[1]; binding to hPARG, compared with ADP-HPD", "result": "~1000", "unit": "fold"},
      {"measurement": "Kd", "setting": "[1]; hPARG4-ADP-HPD complex formed in situ, increasing concentrations of compound, data not shown, read-out: KD (SPR competition)", "result": "~40", "unit": "µM"},
      {"measurement": "Kd", "setting": "[2]", "result": 120, "unit": "µM"},
      {"measurement": "decrease in affinity versus wild-type", "setting": "[3]", "result": "No detectable activity; 10-fold decrease in ADPR affinity"},
      {"measurement": "effect of mutation on affinity", "setting": "[4]", "result": "No detectable activity; no effect on ADPR affinity"}
    ]},
    {"smiles": "Nc1ncnc2c1ncn2[C@@H]1O[C@H](COP(=O)(O)O)[C@@H](O)[C@H]1O", "note": "[AMP]", "values": [
      {"measurement": "drop-off in affinity upon removal of the β-phosphate-ribose moiety", "setting": "[1]; AMP compared with ADPR", "result": 10, "unit": "fold"},
      {"measurement": "Kd", "setting": "[1]; same competition-based method as for ADPR, n = 1, read-out: approximate KD (SPR competition)", "result": "~380", "unit": "µM"}
    ]},
    {"smiles": "CCCCCCCCNc1nc2c(N)ncnc2n1[C@@H]1O[C@H](COP(=O)(O)OP(=O)(O)OC[C@H]2NC[C@H](O)[C@@H]2O)[C@@H](O)[C@H]1O", "note": "[OA-ADP-HPD, 8-n-octyl-amino-ADP-HPD]", "values": [
      {"measurement": "completeness of inhibition of hPARG activity in vitro", "setting": "[5]; compared with ADP-HPD, used as maximally-inhibited control in HTS assay", "result": "more complete inhibitor"},
      {"measurement": "IC50", "setting": "[5]; hPARG, HTS campaign format, 3 µL reaction, 1536-well, 10 min, read-out: IC50", "result": "16.3 ± 1.1", "unit": "µM"},
      {"measurement": "Kd", "setting": "[6]; read-out: KD (ITC)", "result": "0.8 ± 0.1", "unit": "µM"},
      {"measurement": "ΔG", "setting": "[6]; ITC", "result": "-8.34 ± 0.072", "unit": "kcal/mol"},
      {"measurement": "ΔH", "setting": "[6]; ITC", "result": "-12.1 ± 0.335", "unit": "kcal/mol"},
      {"measurement": "ΔS", "setting": "[6]; ITC", "result": "−52.9±4.7", "unit": "J/mol/K"},
      {"measurement": "cell activity", "setting": "[7]", "result": "unable to show cell activity"}
    ]}
  ]
}
